# Calls of active or inactive are those of the source. No cut-off for these calls is given here.
# Key:
# [1] = Toxicity in sepsis BALB/c mouse model infected with methicillin-resistant Staphylococcus aureus clinical isolate M12 assessed as survival rate at 6 mg/kg, ip administered consecutively at 12 hr-interval for 7 days measured after 24 hrs post-last dose; assay type: organism-based; settings: in vivo, 192 h, time 8 day
# [2] = tested on: Staphylococcus aureus; assay: Antibacterial activity against methicillin-resistant Staphylococcus aureus clinical isolate M12 by CLSI based micro-broth dilution method; assay type: functional
# [3] = tested on: Staphylococcus aureus; assay: Induction of morphological changes in methicillin-resistant Staphylococcus aureus clinical isolate M12 assessed as rupture of bacterial bodies at 8 times MIC incubated for 4 hrs by SEM analysis; assay type: functional, organism-based
# [4] = tested on: Staphylococcus aureus; assay: Disruption of cell membrane in methicillin-resistant Staphylococcus aureus clinical isolate M12 assessed as fold increase in DNA leakage at 8 times MIC incubated for 4 hrs by […] relative to control; assay type: functional
# [5] = tested on: Staphylococcus aureus; assay: (§1) Antibacterial activity against methicillin-resistant Staphylococcus aureus clinical isolate M12 infected in sepsis BALB/c mouse model assessed as decrease in degeneration of hepatocytes at 12 mg/kg, ip administered consecutively at 12 hr-interval for 24 hrs measured after 24 hrs post-last dose by H and E staining based analysis; assay type: functional, organism-based; settings: time 48.0 hrs
# [6] = Toxicity in KM mouse infected with methicillin-resistant Staphylococcus aureus clinical isolate M12 assessed as histopathological abnormality in liver at 5 to 10 mg/kg, sc measured after 24 hrs by H and E staining based analysis; assay type: organism-based; settings: in vivo, dose 5-10 mg/kg
# [7] = Toxicity in KM mouse infected with methicillin-resistant Staphylococcus aureus clinical isolate M12 assessed as histopathological abnormality in lung at 5 to 10 mg/kg, sc measured after 24 hrs by H and E staining based analysis; assay type: organism-based; settings: in vivo, dose 5-10 mg/kg
# [8] = tested on: Staphylococcus aureus; assay: Disruption of cell membrane in methicillin-resistant Staphylococcus aureus clinical isolate M12 assessed as accumulation of intracellular ROS level incubated for 40 mins by DCFH-DA probe based analysis; assay type: functional, organism-based; settings: dose <= 128.0 µg/ml
# [9] = tested on: Staphylococcus aureus; assay: Induction of morphological changes in methicillin-resistant Staphylococcus aureus clinical isolate M12 assessed as irregular change in cell surface at 8 times MIC incubated for 4 hrs by SEM analysis; assay type: functional, organism-based
# [10] = Toxicity in KM mouse assessed as degeneration of lung epithelial cells at 20 mg/kg, sc measured after 24 hrs by H and E staining based analysis; assay type: organism-based; settings: in vivo
# [11] = Toxicity in KM mouse assessed as necrosis in cardiac muscle fibers at 20 mg/kg, sc measured after 24 hrs by H and E staining based analysis; assay type: organism-based; settings: in vivo
# [12] = Toxicity in BALB/c mouse assessed as inflammatory cell infiltration in renal tubular epithelial cells at 15 mg/kg, ip bid for 7 days; assay type: organism-based; settings: in vivo, 168 h, time 7 day
# [13] = Toxicity in KM mouse assessed as edema in lung epithelial cells at 20 mg/kg, sc measured after 24 hrs by H and E staining based analysis; assay type: organism-based; settings: in vivo
# [14] = tested on: Staphylococcus aureus; assay: Bactericidal activity against methicillin-resistant Staphylococcus aureus clinical isolate M12 infected in KM mouse assessed as decrease in inflammatory cells in dermis at 10 mg/kg, sc measured after 24 hrs; assay type: functional, organism-based
# [15] = tested on: Staphylococcus aureus; assay: Antibacterial activity against methicillin-resistant Staphylococcus aureus clinical isolate M12 infected in KM mouse assessed as decrease in bacterial load in skin tissues at 5 mg/kg, sc measured after 24 hrs by drop-plate counting method (reference value: 6.7); assay type: functional
# [16] = tested on: Staphylococcus aureus; assay: Bactericidal activity against Staphylococcus aureus ATCC 29213 at 8 times MIC incubated for 6 hrs by time-kill assay relative to control; assay type: functional
# [17] = Selectivity index, ratio of HC50 for hemolytic activity in sheep erythrocytes to MIC for antibacterial activity against Staphylococcus aureus ATCC 29213; assay type: toxicity, cell-based, RBC
# [18] = Toxicity in KM mouse assessed as animal survival at 5 to 80 mg/kg, sc; assay type: organism-based; settings: in vivo, dose 5-80 mg/kg
# [19] = tested on: Staphylococcus aureus; assay: as §1, with “pathological change in white medulla” for “degeneration”, “spleen” for “hepatocytes”; assay type: functional, organism-based; settings: time 48.0 hrs
# [20] = tested on: Staphylococcus aureus; assay: Antibacterial activity against methicillin-resistant Staphylococcus aureus clinical isolate M12 infected in KM mouse assessed as decrease in bacterial survival rate at 5 mg/kg, sc measured after 24 hrs by drop-plate counting method relative to control; assay type: functional
# [21] = Toxicity in KM mouse assessed as formation of small erythema at administration site at >40 mg/kg, sc; assay type: organism-based; settings: in vivo
# [22] = Toxicity in KM mouse assessed as pathological change in red medulla of spleen at 20 mg/kg, sc measured after 24 hrs by H and E staining based analysis; assay type: organism-based; settings: in vivo
# [23] = tested on: Staphylococcus aureus; assay: Bactericidal activity against methicillin-resistant Staphylococcus aureus clinical isolate M12 infected in KM mouse assessed as decrease in inflammatory cells in epidermis at 10 mg/kg, sc measured after 24 hrs; assay type: functional, organism-based
# [24] = Toxicity in KM mouse infected with methicillin-resistant Staphylococcus aureus clinical isolate M12 assessed as damage in heart at 5 to 10 mg/kg, sc measured after 24 hrs by H and E staining based analysis; assay type: organism-based; settings: in vivo, dose 5-10 mg/kg
# [25] = tested on: Staphylococcus aureus; assay: Antibacterial activity against methicillin-resistant Staphylococcus aureus clinical isolate M12 incubated for 16 to 18 hrs in presence of phosphatidylglycerol; assay type: functional; settings: time 16-18 hrs
# [26] = Toxicity in KM mouse assessed as pathological change in heart at 20 mg/kg, sc measured after 24 hrs by H and E staining based analysis; assay type: organism-based; settings: in vivo
# [27] = Toxicity in sepsis BALB/c mouse model infected with methicillin-resistant Staphylococcus aureus clinical isolate M12 assessed as survival rate at 12 mg/kg, ip administered consecutively at 12 hr-interval for 7 days measured after 24 hrs post-last dose; assay type: organism-based; settings: in vivo, 192 h, time 8 day
# [28] = Toxicity in KM mouse assessed as smooth skin at <20 mg/kg, sc; assay type: organism-based; settings: in vivo
# [29] = Toxicity in KM mouse assessed as pathological change in liver at 20 mg/kg, sc measured after 24 hrs by H and E staining based analysis; assay type: organism-based; settings: in vivo
# [30] = tested on: Staphylococcus aureus; assay: Antibacterial activity against methicillin-resistant Staphylococcus aureus clinical isolate M20 by CLSI based micro-broth dilution method; assay type: functional
# [31] = Toxicity in KM mouse assessed as pathological change in lung at 20 mg/kg, sc measured after 24 hrs by H and E staining based analysis; assay type: organism-based; settings: in vivo
# [32] = Toxicity in KM mouse assessed as degeneration of renal tubular epithelial cells at 20 mg/kg, sc measured after 24 hrs by H and E staining based analysis; assay type: organism-based; settings: in vivo
# [33] = tested on: Staphylococcus aureus; assay: Antibacterial activity against methicillin-resistant Staphylococcus aureus clinical isolate M11 by CLSI based micro-broth dilution method; assay type: functional
# [34] = Toxicity in BALB/c mouse assessed as smooth hair at <15 mg/kg, ip bid for 7 days; assay type: organism-based; settings: in vivo, 168 h, time 7 day
# [35] = Toxicity in KM mouse assessed as degeneration in cardiac muscle fibers at 20 mg/kg, sc measured after 24 hrs by H and E staining based analysis; assay type: organism-based; settings: in vivo
# [36] = Toxicity in BALB/c mouse assessed as loss of lustrous hair at 40 mg/kg, ip bid for 7 days; assay type: organism-based; settings: in vivo, 168 h, time 7 day
# [37] = tested on: Staphylococcus aureus; assay: as §1, with “pathological change in red medulla” for “degeneration”, “spleen” for “hepatocytes”; assay type: functional, organism-based; settings: time 48.0 hrs
# [38] = Toxicity in BALB/c mouse assessed as edema in renal tubular epithelial cells at 15 mg/kg, ip bid for 7 days; assay type: organism-based; settings: in vivo, 168 h, time 7 day
structure (smiles),measurement,setting,value
C=CCc1cc(-c2ccc(OCCC[N+](C)(C)CC(=O)NCCCC)c(CC=C)c2)c2oc(=S)n(Cc3ccc(F)cc3)c2c1.[Br-],Survival,[1],16.7%
same,MIC,[2],2 µg/mL
same,Activity,[3],Active
same,fold change (FC),[4],~4
same,Activity,[5],Active
same,Activity,[6],Non-Toxic
same,Activity,[7],Non-Toxic
same,Activity,[8],Dose-Dependent Effect
same,Activity,[9],Active
same,Activity,[10],Non-Toxic
same,Activity,[11],Non-Toxic
same,Activity,[12],Non-Toxic
same,Activity,[13],Non-Toxic
same,Activity,[14],Active
same,Activity,[15],1.4 log10CFU/g
same,Activity,[16],100%
same,selectivity ratio,[17],95.1
same,Activity,[18],Non-Toxic
same,Activity,[19],Active
same,Activity,[20],92.72%
same,Activity,[21],Toxic
same,Activity,[22],Non-Toxic
same,Activity,[23],Active
same,Activity,[24],Non-Toxic
same,MIC,[25],128 µg/mL
same,Activity,[26],Non-Toxic
same,Survival,[27],33.3%
same,Activity,[28],Non-Toxic
same,Activity,[29],Non-Toxic
same,MIC,[30],2 µg/mL
same,Activity,[31],Non-Toxic
same,Activity,[32],Non-Toxic
same,MIC,[33],4 µg/mL
same,Activity,[34],Non-Toxic
same,Activity,[35],Non-Toxic
same,Activity,[36],Toxic
same,Activity,[37],Active
same,Activity,[38],Non-Toxic
